Measured values as given in patent publication US12209087B2, “AKT1 modulators” (Alterome Therapeutics, Inc., priority 2022, dated 2025).

Molecular target: T1, full length AKT E17K (Homo sapiens, UniProt P31749, E17K)
T1 construct: host or cells: HEK-293 (ATCC CRL-1573)
Test: NanoBRET Target Engagement (TE) Assay
Type: cell-based
Conditions: competitive displacement of tracer in cells, read-out: AKT1 E17K IC50
How it was run: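 Compound and tracer incubated 2 h before luminescence at donor 450 nm and acceptor 600 nm, with extracellular signal inhibited. EC50 by sigmoidal variable-slope regression.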

T1 sequence (P31749 whole entry E17K): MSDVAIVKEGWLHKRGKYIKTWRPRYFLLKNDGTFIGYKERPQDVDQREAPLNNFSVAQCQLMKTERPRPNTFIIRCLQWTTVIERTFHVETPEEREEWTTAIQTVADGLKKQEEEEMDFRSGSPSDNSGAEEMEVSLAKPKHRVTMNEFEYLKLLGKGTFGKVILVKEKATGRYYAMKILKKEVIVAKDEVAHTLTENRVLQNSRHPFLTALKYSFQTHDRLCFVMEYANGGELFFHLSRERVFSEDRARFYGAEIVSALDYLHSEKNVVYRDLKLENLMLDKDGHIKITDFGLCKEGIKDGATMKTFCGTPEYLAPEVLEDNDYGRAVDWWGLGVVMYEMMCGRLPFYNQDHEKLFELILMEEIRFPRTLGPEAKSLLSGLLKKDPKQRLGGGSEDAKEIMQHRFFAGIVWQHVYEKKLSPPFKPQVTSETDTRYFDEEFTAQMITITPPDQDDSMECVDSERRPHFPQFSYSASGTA

SMILES | IC50
Cc1ncoc1-c1ccc2nc(-c3cccnc3N)n(-c3ccc(CN4CCC(Nc5ccnc(C#N)n5)CC4)cc3)c2n1 [Example 554, 4-((1-(4-(2-(2-Aminopyridin-3-yl)-5-(4-methyloxazol-5-yl)-3H-imidazo[4,5-b]pyridin-3-yl)benzyl)piperidin-4-yl)amino)pyrimidine-2-carbonitrile] | < 15 nM
N#Cc1nccc(NC2CCN(Cc3ccc(-n4c(-c5cccnc5N)nc5ccc(-c6cnn(C7CC7)c6)nc54)cc3)CC2)n1 [Example 555, 4-((1-(4-(2-(2-Aminopyridin-3-yl)-5-(1-cyclopropyl-1H-pyrazol-4-yl)-3H-imidazo[4,5-b]pyridin-3-yl)benzyl)piperidin-4-yl)amino)pyrimidine-2-carbonitrile] | < 15 nM
N#Cc1nccc(NC2CCN(Cc3ccc(-n4c(-c5cccnc5N)nc5nc(C#N)c(C#N)nc54)cc3)CC2)n1 [Example 556, 2-(2-Aminopyridin-3-yl)-1-(4-((4-((2-cyanopyrimidin-4-yl)amino)piperidin-1-yl)methyl)phenyl)-1H-imidazo[4,5-b]pyrazine-5,6-dicarbonitrile] | 600 to 10000 nM
N#Cc1nccc(NC2CCN(Cc3ccc(-n4c(-c5cccnc5N)nc5cc(C#N)c(-c6ccc(F)cc6)nc54)cc3)CC2)n1 [Example 557, 2-(2-Aminopyridin-3-yl)-3-(4-((4-((2-cyanopyrimidin-4-yl)amino)piperidin-1-yl)methyl)phenyl)-5-(4-fluorophenyl)-3H-imidazo[4,5-b]pyridine-6-carbonitrile] | < 15 nM
N#Cc1nccc(NC2CCN(Cc3ccc(-n4c(-c5cccnc5N)nc5ccc(-c6cccnc6F)nc54)cc3)CC2)n1 [Example 558, 4-((1-(4-(2-(2-Aminopyridin-3-yl)-5-(2-fluoropyridin-3-yl)-3H-imidazo[4,5-b]pyridin-3-yl)benzyl)piperidin-4-yl)amino)pyrimidine-2-carbonitrile] | < 15 nM
Cn1cnc(-c2ccc3nc(-c4cccnc4N)n(-c4ccc(CN5CCC(Nc6ccnc(C#N)n6)CC5)cc4)c3n2)n1 [Example 559, 4-((1-(4-(2-(2-Aminopyridin-3-yl)-5-(1-methyl-1H-1,2,4-triazol-3-yl)-3H-imidazo[4,5-b]pyridin-3-yl)benzyl)piperidin-4-yl)amino)pyrimidine-2-carbonitrile] | 15 to 60 nM
CCOc1ccc(-c2ccc3nc(-c4cccnc4N)n(-c4ccc(CN5CCC(Nc6ccnc(C#N)n6)CC5)cc4)c3n2)nc1 [Example 560, 4-((1-(4-(2-(2-Aminopyridin-3-yl)-5-(5-ethoxypyridin-2-yl)-3H-imidazo[4,5-b]pyridin-3-yl)benzyl)piperidin-4-yl)amino)pyrimidine-2-carbonitrile] | < 15 nM
N#Cc1nccc(NC2CCN(Cc3ccc(-n4c(-c5cccnc5N)nc5ccc(-c6ccnc(F)c6)nc54)cc3)CC2)n1 [Example 561, 4-((1-(4-(2-(2-Aminopyridin-3-yl)-5-(2-fluoropyridin-4-yl)-3H-imidazo[4,5-b]pyridin-3-yl)benzyl)piperidin-4-yl)amino)pyrimidine-2-carbonitrile] | < 15 nM
Cn1ncc(-c2ccc3nc(-c4nccnc4N)n(-c4ccc(CN5CCC(Nc6ccnc(C#N)n6)CC5)cc4)c3n2)n1 [Example 562, 4-((1-(4-(2-(3-Aminopyrazin-2-yl)-5-(2-methyl-2H-1,2,3-triazol-4-yl)-3H-imidazo[4,5-b]pyridin-3-yl)benzyl)piperidin-4-yl)amino)pyrimidine-2-carbonitrile] | < 15 nM
COc1cccnc1-c1ccc2nc(-c3cccnc3N)n(-c3ccc(CN4CCC(Nc5ccnc(C#N)n5)CC4)cc3)c2n1 [Example 563, 4-((1-(4-(2-(2-Aminopyridin-3-yl)-5-(3-methoxypyridin-2-yl)-3H-imidazo[4,5-b]pyridin-3-yl)benzyl)piperidin-4-yl)amino)pyrimidine-2-carbonitrile] | < 15 nM
Cn1nncc1-c1ccc2nc(-c3cccnc3N)n(-c3ccc(CN4CCC(Nc5ccnc(C#N)n5)CC4)cc3)c2n1 [Example 564, 4-((1-(4-(2-(2-Aminopyridin-3-yl)-5-(1-methyl-1H-1,2,3-triazol-5-yl)-3H-imidazo[4,5-b]pyridin-3-yl)benzyl)piperidin-4-yl)amino)pyrimidine-2-carbonitrile] | 15 to 60 nM
Cc1cc2nc(-c3cccnc3N)n(-c3ccc(CN4CCC(Nc5ccnc(C#N)n5)CC4)cc3)c2nc1C#N [Example 565, 2-(2-Aminopyridin-3-yl)-3-(4-((4-((2-cyanopyrimidin-4-yl)amino)piperidin-1-yl)methyl)phenyl)-6-methyl-3H-imidazo[4,5-b]pyridine-5-carbonitrile] | < 15 nM
Cc1nnc(-c2ccc3nc(-c4cccnc4N)n(-c4ccc(CN5CCC(Nc6ccnc(C#N)n6)CC5)cc4)c3n2)o1 [Example 566, 4-((1-(4-(2-(2-Aminopyridin-3-yl)-5-(5-methyl-1,3,4-oxadiazol-2-yl)-3H-imidazo[4,5-b]pyridin-3-yl)benzyl)piperidin-4-yl)amino)pyrimidine-2-carbonitrile] | 15 to 60 nM
Cn1ncnc1-c1ccc2nc(-c3cccnc3N)n(-c3ccc(CN4CCC(Nc5ccnc(C#N)n5)CC4)cc3)c2n1 [Example 567, 4-((1-(4-(2-(2-Aminopyridin-3-yl)-5-(1-methyl-1H-1,2,4-triazol-5-yl)-3H-imidazo[4,5-b]pyridin-3-yl)benzyl)piperidin-4-yl)amino)pyrimidine-2-carbonitrile] | < 15 nM
Cc1cnn(-c2ccc3nc(-c4cccnc4N)n(-c4ccc(CN5CCC(Nc6ccnc(C#N)n6)CC5)cc4)c3n2)n1 [Example 568, 4-((1-(4-(2-(2-Aminopyridin-3-yl)-5-(4-methyl-2H-1,2,3-triazol-2-yl)-3H-imidazo[4,5-b]pyridin-3-yl)benzyl)piperidin-4-yl)amino)pyrimidine-2-carbonitrile] | < 15 nM
Cn1cnnc1-c1ccc2nc(-c3cccnc3N)n(-c3ccc(CN4CCC(Nc5ccnc(C#N)n5)CC4)cc3)c2n1 [Example 569, 4-((1-(4-(2-(2-Aminopyridin-3-yl)-5-(4-methyl-4H-1,2,4-triazol-3-yl)-3H-imidazo[4,5-b]pyridin-3-yl)benzyl)piperidin-4-yl)amino)pyrimidine-2-carbonitrile] | 60 to 600 nM
N#Cc1nccc(NC2CCN(Cc3ccc(-n4c(-c5cccnc5N)nc5ccc(-c6ncccc6F)nc54)cc3)CC2)n1 [Example 570, 4-((1-(4-(2-(2-Aminopyridin-3-yl)-5-(3-fluoropyridin-2-yl)-3H-imidazo[4,5-b]pyridin-3-yl)benzyl)piperidin-4-yl)amino)pyrimidine-2-carbonitrile] | < 15 nM
Cc1cccc(-c2ccc3nc(-c4cccnc4N)n(-c4ccc(CN5CCC(Nc6ccnc(C#N)n6)CC5)cc4)c3n2)n1 [Example 571, 4-((1-(4-(2-(2-Aminopyridin-3-yl)-5-(6-methylpyridin-2-yl)-3H-imidazo[4,5-b]pyridin-3-yl)benzyl)piperidin-4-yl)amino)pyrimidine-2-carbonitrile] | < 15 nM
N#Cc1nccc(NC2CCN(Cc3ccc(-n4c(-c5cccnc5N)nc5ccc(-c6ncn(C(F)F)n6)nc54)cc3)CC2)n1 [Example 572, 4-((1-(4-(2-(2-Aminopyridin-3-yl)-5-(1-(difluoromethyl)-1H-1,2,4-triazol-3-yl)-3H-imidazo[4,5-b]pyridin-3-yl)benzyl)piperidin-4-yl)amino)pyrimidine-2-carbonitrile] | < 15 nM
N#Cc1nccc(NC2CCN(Cc3ccc(-n4c(-c5cncnc5N)nc5ccc(-c6ccc(F)cn6)nc54)cc3)CC2)n1 [Example 573, 4-((1-(4-(2-(4-Aminopyrimidin-5-yl)-5-(5-fluoropyridin-2-yl)-3H-imidazo[4,5-b]pyridin-3-yl)benzyl)piperidin-4-yl)amino)pyrimidine-2-carbonitrile] | 15 to 60 nM
N#Cc1nccc(NC2CCN(Cc3ccc(-n4c(-c5nccnc5N)nc5ccc(-c6ccc(F)cn6)nc54)cc3)CC2)n1 [Example 574, 4-((1-(4-(2-(3-Aminopyrazin-2-yl)-5-(5-fluoropyridin-2-yl)-3H-imidazo[4,5-b]pyridin-3-yl)benzyl)piperidin-4-yl)amino)pyrimidine-2-carbonitrile] | < 15 nM
N#Cc1nccc(NC2CCN(Cc3ccc(-n4c(-c5cccnc5)nc5ccc(-c6ccc(F)cn6)nc54)cc3)CC2)n1 [Example 575, 4-((1-(4-(5-(5-Fluoropyridin-2-yl)-2-(pyridin-3-yl)-3H-imidazo[4,5-b]pyridin-3-yl)benzyl)piperidin-4-yl)amino)pyrimidine-2-carbonitrile] | 60 to 600 nM
N#Cc1nccc(NC2CCN(Cc3ccc(-n4c(-c5ccccc5N)nc5ccc(-c6ccc(F)cn6)nc54)cc3)CC2)n1 [Example 576, 4-((1-(4-(2-(2-Aminophenyl)-5-(5-fluoropyridin-2-yl)-3H-imidazo[4,5-b]pyridin-3-yl)benzyl)piperidin-4-yl)amino)pyrimidine-2-carbonitrile] | 15 to 60 nM
N#Cc1nccc(NC2CCN(Cc3ccc(-n4c(-c5ccccc5)nc5ccc(-c6ccc(F)cn6)nc54)cc3)CC2)n1 [Example 577, 4-((1-(4-(5-(5-Fluoropyridin-2-yl)-2-phenyl-3H-imidazo[4,5-b]pyridin-3-yl)benzyl)piperidin-4-yl)amino)pyrimidine-2-carbonitrile] | 15 to 60 nM
[2H]C([2H])([2H])Oc1ccc(-c2ccc3nc(-c4cccnc4N)n(-c4ccc(CN5CCC(Nc6ccnc(C#N)n6)CC5)cc4)c3n2)nc1 [Example 578, 4-((1-(4-(2-(2-Aminopyridin-3-yl)-5-(5-(methoxy-d)pyridin-2-yl)-3H-imidazo[4,5-b]pyridin-3-yl)benzyl)piperidin-4-yl)amino)pyrimidine-2-carbonitrile] | < 15 nM
N#Cc1nccc(NC2CCN(Cc3ccc(-n4c(-c5cccnc5N)nc5ccc(-c6ccc(OC(F)F)cn6)nc54)cc3)CC2)n1 [Example 579, 4-((1-(4-(2-(2-Aminopyridin-3-yl)-5-(5-(difluoromethoxy)pyridin-2-yl)-3H-imidazo[4,5-b]pyridin-3-yl)benzyl)piperidin-4-yl)amino)pyrimidine-2-carbonitrile] | < 15 nM
